The text below walks through data of patent US5236957A, “N-phenylalkyl substituted α-amino carboxamide derivatives and process for their preparation” (Farmitalia Carlo Erba Srl, priority 1989, dated 1993).

For one experiment, the system named is 3-mercaptopropionic acid (MPA) induced tonic convulsions in mice. The experiment is described as follows: Antagonism of 3-mercaptopropionic acid (MPA) induced tonic convulsions in mice. Type of experiment: in vivo. Particulars: Mus musculus, po, 1 h. The procedure: (§1) The activity on the CNS of the compounds of the invention was evaluated on the basis of pharmacological methods, such as, for example, the antagonism of convulsions and lethality induced by intravenous injection of bicucculine in mice (Antiepileptic Drug, D. M. Woodbury et al. eds., 2nd edition, Raven Press, New York, 1982), or the antagonism of convulsions induced in mice by subcutaneous injection of 3-mercaptopropionic acid (W. Loscher, Biochem. Pharmacol., 28; 1397-1407, 1979). Accordingly in following Tables 1 and 2, the doses which protect 50% of the mice (i.e. ED50) from lethality and tonic convulsions induced by bicucculine and 3-mercaptopropanoic acid, respectively, are given for a representative group of compounds according to the present invention.
Antagonism of 3-mercaptopropionic acid (MPA) induced
tonic convulsions in mice; drugs were given orally
1 h before MPA (60 mg/kg s.c.)
In turn, `CCCC(CCC)C(=O)O` [Valproate, reference compound] registered an ED50 of 302 mg/kg.

Still in this experiment, the particulars now being: Mus musculus, po; drugs given orally 1 h before MPA (60 mg/kg s.c.); protection of 50% of mice from tonic convulsions; read-out: ED50.
For the compound `NC(=O)CNCc1ccc(OCc2cccc(Cl)c2)cc1` [FCE 25989, 2-[4-(3-chlorobenzyloxy)benzyl]aminoacetamide], the ED50 turned out to be 28 mg/kg.

As to `C[C@@H](NCc1ccc(OCc2cccc(Cl)c2)cc1)C(N)=O` [FCE 26312, (R)-2-[4-(3-chlorobenzyloxy)benzyl]aminopropionamide], the 50% effective dose (ED50) is 10 mg/kg.

Regarding `CNC(=O)[C@H](CO)NCc1ccc(OCc2ccccc2)cc1` [FCE 26358, (S)-2-(4-benzyloxybenzyl)amino-3-hydroxy-N-methylpropionamide], the ED50 is 43 mg/kg. Same read-out and setting: next, `CNC(=O)[C@H](CO)NCc1ccc(OCc2cccc(Cl)c2)cc1` [FCE 26359, (S)-2-[4-(3-chlorobenzyloxy)benzyl]amino-3-hydroxy-N-methylpropionamide]: 29 mg/kg. Still for that read-out and setting: next, `CNC(=O)[C@H](CO)NCc1ccc(OCc2ccccc2Cl)cc1` [FCE 26502, (S)-2-[4-(2-chlorobenzyloxy)benzyl]amino-3-hydroxy-N-methylpropionamide]: 16 mg/kg. Same read-out and setting: next, `C[C@H](NCc1ccc(OCc2ccccc2)cc1)C(N)=O` [FCE 26550, (S)-2-(4-benzyloxybenzyl)aminopropionamide]: 13 mg/kg.

Another experiment addresses T1, MAO type B (Rattus norvegicus, UniProt P19643).
T1 construct: using rat liver mitochondria as the source of MAO; from tissue; host or cells: rat liver mitochondria
T1 sequence (P19643 1-520): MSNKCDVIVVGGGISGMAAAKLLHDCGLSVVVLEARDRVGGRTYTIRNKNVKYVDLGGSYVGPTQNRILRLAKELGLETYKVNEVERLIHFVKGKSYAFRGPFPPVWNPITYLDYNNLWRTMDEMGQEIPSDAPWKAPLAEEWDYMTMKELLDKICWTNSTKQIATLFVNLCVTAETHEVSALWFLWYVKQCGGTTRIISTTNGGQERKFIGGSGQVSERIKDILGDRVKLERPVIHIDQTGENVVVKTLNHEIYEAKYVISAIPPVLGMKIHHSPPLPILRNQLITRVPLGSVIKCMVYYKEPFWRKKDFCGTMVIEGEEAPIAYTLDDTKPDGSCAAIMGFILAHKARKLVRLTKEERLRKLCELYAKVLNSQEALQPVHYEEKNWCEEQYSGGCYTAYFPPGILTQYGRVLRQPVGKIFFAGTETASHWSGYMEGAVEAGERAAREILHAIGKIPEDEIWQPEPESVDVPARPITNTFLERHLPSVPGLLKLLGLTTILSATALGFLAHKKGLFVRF
Description: Inhibition of MAO type B, rat liver mitochondria, 2-phenylethylamine as substrate. Type of experiment: biochemical. Particulars: rat liver mitochondria as source of MAO.
`NC(=O)CNCc1ccc(OCc2cccc(Cl)c2)cc1` [FCE 25989, 2-[4-(3-chlorobenzyloxy)benzyl]aminoacetamide]: the IC50 stood at 200 nM.

A further experiment relates to serotonin (5-HT) and 5-hydroxy-indole-3-acetic acid (5-HIAA). The experiment is described as follows: Levels of 5-HT and 5-HIAA in frontal cortex of mice. Type of experiment: in vivo. Particulars: 200 mg/kg p.o.
In the case of `NC(=O)CNCc1ccc(OCc2cccc(Cl)c2)cc1` [FCE 25989, 2-[4-(3-chlorobenzyloxy)benzyl]aminoacetamide], the “increase of 5-HIAA” value is on record as 37% and the “increase of 5-HT” value amounted to 48%.

In another experiment the test system is bicucculine-induced lethality in mice. The experiment is described as follows: Antagonism of bicucculine-induced lethality in mice. Format: in vivo. Particulars: Mus musculus, po; drugs given orally 1 h before bicucculine (0.6 mg/kg, i.v.); protection of 50% of mice from lethality. The procedure: as §1
Antagonism of bicucculine-induced lethality in mice.
Drugs were given orally 1 h before bicucculine (0.6 mg/kg, i.v.)
`NC(=O)CNCc1ccc(OCc2cccc(Cl)c2)cc1` [FCE 25989, 2-[4-(3-chlorobenzyloxy)benzyl]aminoacetamide] showed an ED50 of 190 mg/kg. On the same count and under the same terms, in the case of `C[C@@H](NCc1ccc(OCc2cccc(Cl)c2)cc1)C(N)=O` [FCE 26312, (R)-2-[4-(3-chlorobenzyloxy)benzyl]aminopropionamide] it was 50 mg/kg; in that of `CNC(=O)[C@H](CO)NCc1ccc(OCc2ccccc2)cc1` [FCE 26358, (S)-2-(4-benzyloxybenzyl)amino-3-hydroxy-N-methylpropionamide], 16 mg/kg.

Regarding `CNC(=O)[C@H](CO)NCc1ccc(OCc2ccccc2Cl)cc1` [FCE 26502, (S)-2-[4-(2-chlorobenzyloxy)benzyl]amino-3-hydroxy-N-methylpropionamide], it took a dose of 27 mg/kg to reach the 50% effect level (ED50).

`C[C@H](NCc1ccc(OCc2ccccc2)cc1)C(N)=O` [FCE 26550, (S)-2-(4-benzyloxybenzyl)aminopropionamide] came in with an ED50 of 15 mg/kg. Still for that read-out and setting: in the case of `CNC(=O)[C@H](CO)NCc1ccc(OCc2ccccc2F)cc1` [FCE 26649] it was 12 mg/kg; in that of `CNC(=O)[C@H](CO)NCc1ccc(OCc2cccc(F)c2)cc1` [FCE 26650, (S)-2-[4-(3-fluorobenzyloxy)benzyl]amino-3-hydroxy-N-methylpropionamide], 25 mg/kg; in that of `C[C@H](NCc1ccc(OCc2ccccc2Cl)cc1)C(N)=O` [FCE 26700, (S)-2-[4-(2-chlorobenzyloxy)benzyl]aminopropionamide], 17 mg/kg. Same read-out and setting: in the case of `C[C@H](NCc1ccc(Cc2ccccc2)cc1)C(N)=O` [FCE 26723, (S)-2-(4-benzylbenzyl)aminopropionamide] it was 16 mg/kg; in that of `C[C@H](NCc1ccc(OCc2cccc(F)c2)cc1)C(N)=O` [FCE 26743, (S)-2-[4-(3-fluorobenzyloxy)benzyl]aminopropionamide], 29 mg/kg. `C[C@H](NCc1ccc(NCc2ccccc2)cc1)C(N)=O` [FCE 26749, (S)-2-(4-benzylaminobenzyl)aminopropionamide]: it took a dose of 9 mg/kg to reach the 50% effect level (ED50). Same read-out and setting: in the case of `C[C@@H](C(N)=O)N(C)Cc1ccc(Cc2ccccc2)cc1` [FCE 26762, (S)-2-[N-(4-benzylbenzyl)-N-methyl]aminopropionamide] it was 54 mg/kg.

Regarding `CCCC(CCC)C(=O)O` [Valproate, reference compound], the ED50 worked out at 401 mg/kg.
